Test results published in ChEMBL document CHEMBL1201862, “PubChem BioAssay data set” (2004).
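Protocol summary: plate cells (96-well), add compound at 5 concentrations, incubate 48 h, interpolate endpoints linearly. Here, GI50 denotes the concentration required for 50% inhibition of growth.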 The source made the active and inactive calls. Cut-off read from the data, not from the text of the source: active = GI50 up to about 1.1 µM and inactive = higher.

Columns and labels:
Assay in all cases: NCI anticancer screen, dose series, 48 h
UO-31 = system: UO-31
HT-29 = system: HT-29
NCI/ADR-RES = system: NCI/ADR-RES
Malme-3M = system: Malme-3M
OVCAR-5 = system: OVCAR-5
HL-60 = system: HL-60
MCF7 = system: MCF7
SK-MEL-28 = system: SK-MEL-28
MDA-MB-231 = system: MDA-MB-231
786-0 = system: 786-0
SW-620 = system: SW-620
NCI-H226 = system: NCI-H226
BT-549 = system: BT-549
SNB-75 = system: SNB-75
NCI-H460 = system: NCI-H460
COLO 205 = system: COLO 205
A549 = system: A549
EKVX = system: EKVX
OVCAR-3 = system: OVCAR-3

| SMILES | GI50 (UO-31) | GI50 (HT-29) | GI50 (NCI/ADR-RES) | GI50 (Malme-3M) | GI50 (OVCAR-5) | GI50 (HL-60) | GI50 (MCF7) | GI50 (SK-MEL-28) | GI50 (MDA-MB-231) | GI50 (786-0) | GI50 (SW-620) | GI50 (NCI-H226) | GI50 (BT-549) | GI50 (SNB-75) | GI50 (NCI-H460) | GI50 (COLO 205) | GI50 (A549) | GI50 (EKVX) | GI50 (OVCAR-3) |
| --- | --- | --- | --- | --- | --- | --- | --- | --- | --- | --- | --- | --- | --- | --- | --- | --- | --- | --- | --- |
| CCc1ncnc2cc(OCC3CO3)c(OC)cc12 (stereo not given) | 2.03 µM (inactive) | 4.83 µM (inactive) | 7.23 µM (inactive) | 12.3 µM (inactive) | 13 µM (inactive) | 0.889 µM (active) | 0.557 µM (active) | 11.7 µM (inactive) | 7.24 µM (inactive) | 0.902 µM (active) | 0.735 µM (active) | 6.49 µM (inactive) | 3.95 µM (inactive) | 17.3 µM (inactive) | 5.53 µM (inactive) | 8.17 µM (inactive) | 4.49 µM (inactive) | 10.6 µM (inactive) | 11.1 µM (inactive) |
| O=C1/C(=C/c2ccccc2)CCCc2ccccc21 | 17.6 µM (inactive) | 17.7 µM (inactive) | 20 µM (inactive) | 20.8 µM (inactive) | 19.1 µM (inactive) | 15.2 µM (inactive) | 17.4 µM (inactive) | 17.4 µM (inactive) | 20.1 µM (inactive) | 16.4 µM (inactive) | 17.7 µM (inactive) | 18.4 µM (inactive) | 20 µM (inactive) | 35.3 µM (inactive) | 16 µM (inactive) | 18.6 µM (inactive) | 22.9 µM (inactive) | 19.5 µM (inactive) | 18.4 µM (inactive) |
| Cc1ccc(C2=Nc3c(c(C)nn3-c3ccccc3)N=C(C(=O)O)C2)cc1 | > 10 µM (inactive) | > 10 µM (inactive) | > 10 µM (inactive) | > 10 µM (inactive) | > 10 µM (inactive) | > 10 µM (inactive) | > 10 µM (inactive) | > 10 µM (inactive) | > 10 µM (inactive) | > 10 µM (inactive) | > 10 µM (inactive) | > 10 µM (inactive) | > 10 µM (inactive) | > 10 µM (inactive) | > 10 µM (inactive) | > 10 µM (inactive) | > 10 µM (inactive) | > 10 µM (inactive) | > 10 µM (inactive) |
| COC(=O)c1cc2ccc(OC(C)=O)c(OC(C)=O)c2cn1 | 15.8 µM (inactive) | 23.9 µM (inactive) | 6.5 µM (inactive) | 8.07 µM (inactive) | 18.7 µM (inactive) | 2.72 µM (inactive) | 2.79 µM (inactive) | 19 µM (inactive) | 4.01 µM (inactive) | 18.5 µM (inactive) | 3.64 µM (inactive) | 22.9 µM (inactive) | > 10 µM (inactive) | 20 µM (inactive) | 21.1 µM (inactive) | 18.7 µM (inactive) | 21.2 µM (inactive) | 22.6 µM (inactive) | 13 µM (inactive) |
| CSCCC(N)C(=O)NCCNc1ccc(NCCNC(=O)C(N)CCSC)c2c1C(=O)c1ccccc1C2=O (stereo not given) | 1.41 µM (inactive) | 0.535 µM (active) | 2.21 µM (inactive) | 1.89 µM (inactive) | 1.99 µM (inactive) | 0.746 µM (active) | 0.409 µM (active) | 1.75 µM (inactive) | 1.16 µM (inactive) | 0.308 µM (active) | 1 µM (active) | 1.08 µM (active) | 1.48 µM (inactive) | 1.57 µM (inactive) | 0.351 µM (active) | 1.16 µM (inactive) | 0.579 µM (active) | 2.46 µM (inactive) | 3.03 µM (inactive) |
| COc1ccc(COCC[C@H](C)OC2OC(CO[Si](C)(C)C(C)(C)C)C(O)C(O)C2O)cc1 (stereo not given in full) | 81.8 µM (inactive) | > 100 µM (inactive) | > 100 µM (inactive) | > 100 µM (inactive) | > 100 µM (inactive) | > 100 µM (inactive) | > 100 µM (inactive) | > 100 µM (inactive) | > 100 µM (inactive) | > 100 µM (inactive) | > 100 µM (inactive) | > 100 µM (inactive) | > 100 µM (inactive) | 44.2 µM (inactive) | > 100 µM (inactive) | > 100 µM (inactive) | > 100 µM (inactive) | > 100 µM (inactive) | > 100 µM (inactive) |
| COc1ccc(-c2cc(-c3ccc(Nc4ccnc5cc(C(F)(F)F)ccc45)cc3)nc(N)c2C#N)cc1 | > 100 µM (inactive) | > 100 µM (inactive) | > 100 µM (inactive) | > 100 µM (inactive) | > 100 µM (inactive) | > 100 µM (inactive) | 35.9 µM (inactive) | 32.5 µM (inactive) | 99.8 µM (inactive) | > 100 µM (inactive) | 62.1 µM (inactive) | > 100 µM (inactive) | 46.2 µM (inactive) | 31 µM (inactive) | > 100 µM (inactive) | > 100 µM (inactive) | > 100 µM (inactive) | > 100 µM (inactive) | 14.6 µM (inactive) |
| O=c1[nH]c2cc([N+](=O)[O-])c(N(CCO)CCO)c([N+](=O)[O-])c2[nH]1 | 35.1 µM (inactive) | 30.3 µM (inactive) | 31.8 µM (inactive) | 61.2 µM (inactive) | 31.9 µM (inactive) | 28.2 µM (inactive) | 46.8 µM (inactive) | 29.4 µM (inactive) | 52.6 µM (inactive) | 35.4 µM (inactive) | 41.2 µM (inactive) | 24 µM (inactive) | 18.5 µM (inactive) | 23.6 µM (inactive) | 21.4 µM (inactive) | 20 µM (inactive) | 35.2 µM (inactive) | 12.9 µM (inactive) | 16.9 µM (inactive) |
| CC[N+](CC)(CCNCC(N)=O)CC(N)=O | > 10 µM (inactive) | > 10 µM (inactive) | > 10 µM (inactive) | > 10 µM (inactive) | > 10 µM (inactive) | > 10 µM (inactive) | > 10 µM (inactive) | > 10 µM (inactive) | > 10 µM (inactive) | > 10 µM (inactive) | > 10 µM (inactive) | > 10 µM (inactive) | > 10 µM (inactive) | > 10 µM (inactive) | > 10 µM (inactive) | > 10 µM (inactive) | > 10 µM (inactive) | > 10 µM (inactive) | > 10 µM (inactive) |
| COC(=O)c1ccc(-n2c(C)nc(=O)c(-c3ccccc3)c2C)cc1 | > 100 µM (inactive) | > 100 µM (inactive) | > 100 µM (inactive) | > 100 µM (inactive) | > 100 µM (inactive) | > 100 µM (inactive) | > 100 µM (inactive) | > 100 µM (inactive) | > 100 µM (inactive) | > 100 µM (inactive) | > 100 µM (inactive) | > 100 µM (inactive) | > 100 µM (inactive) | > 100 µM (inactive) | > 100 µM (inactive) | > 100 µM (inactive) | > 100 µM (inactive) | > 100 µM (inactive) | > 100 µM (inactive) |
| O=C(COc1ccccc1)N(C(=O)N1CCN(c2ccccc2)CC1)S(=O)(=O)c1ccccc1 | 94.6 µM (inactive) | 43.5 µM (inactive) | 56.8 µM (inactive) | > 100 µM (inactive) | > 100 µM (inactive) | 83.4 µM (inactive) | 45.9 µM (inactive) | > 100 µM (inactive) | 52 µM (inactive) | 44.2 µM (inactive) | 42.5 µM (inactive) | 57.4 µM (inactive) | > 100 µM (inactive) | 33.9 µM (inactive) | 71.9 µM (inactive) | > 100 µM (inactive) | > 100 µM (inactive) | > 100 µM (inactive) | 62.4 µM (inactive) |
| N#Cc1c(-c2ccc(Cl)cc2)c2c([nH]c1=O)-c1cc([N+](=O)[O-])ccc1CCC2 | 16 µM (inactive) | 25.4 µM (inactive) | 20.8 µM (inactive) | 25.7 µM (inactive) | 17.2 µM (inactive) | 20 µM (inactive) | 24.9 µM (inactive) | 21.2 µM (inactive) | 22.4 µM (inactive) | 25.1 µM (inactive) | 33.2 µM (inactive) | 17.1 µM (inactive) | 15.2 µM (inactive) | 23.3 µM (inactive) | 14.1 µM (inactive) | 19.1 µM (inactive) | 18.8 µM (inactive) | 17.1 µM (inactive) | 12.8 µM (inactive) |
| CCSc1nc(N2CCOCC2)c2cn[nH]c2n1 | 21.5 µM (inactive) | > 100 µM (inactive) | > 100 µM (inactive) | > 100 µM (inactive) | 77.4 µM (inactive) | > 100 µM (inactive) | 44.9 µM (inactive) | 88.5 µM (inactive) | > 100 µM (inactive) | > 100 µM (inactive) | > 100 µM (inactive) | > 100 µM (inactive) | 82.2 µM (inactive) | 71.1 µM (inactive) | 49.9 µM (inactive) | 39.7 µM (inactive) | 76.9 µM (inactive) | > 100 µM (inactive) | 52.1 µM (inactive) |
| CC1(C)OC2CN(C(=O)OCc3ccccc3)C(CO)C2O1 (stereo not given) | > 100 µM (inactive) | > 100 µM (inactive) | > 100 µM (inactive) | > 100 µM (inactive) | > 100 µM (inactive) | > 100 µM (inactive) | > 100 µM (inactive) | > 100 µM (inactive) | > 100 µM (inactive) | > 100 µM (inactive) | > 100 µM (inactive) | > 100 µM (inactive) | > 100 µM (inactive) | > 100 µM (inactive) | > 100 µM (inactive) | > 100 µM (inactive) | > 100 µM (inactive) | > 100 µM (inactive) | > 100 µM (inactive) |
| COC(=O)c1sc2c(c1C(=O)OC)/C(=N/c1ccc(OC)cc1)S/C2=N\c1ccc(OC)cc1 | 0.865 µM (active) | 0.522 µM (active) | 1.71 µM (inactive) | 1.74 µM (inactive) | 1.73 µM (inactive) | 0.245 µM (active) | 1.08 µM (active) | 1.37 µM (inactive) | 0.853 µM (active) | 0.426 µM (active) | 0.224 µM (active) | 1.74 µM (inactive) | 1.54 µM (inactive) | 0.787 µM (active) | 1.33 µM (inactive) | 0.7 µM (active) | 1.31 µM (inactive) | 1.55 µM (inactive) | 0.611 µM (active) |
